Results published in patent publication US20050197350A1, “Novel quinoline, tetrahydroquinazoline, and pyrimidine derivatives and methods of treatment related to the use thereof” (TAISHO PHARMACEUTICAL CO., LTD., priority 2003, published 2005).

What follows are compounds tested on MCH receptors (assay: MCH receptor activity class (method not given)). Settings: MCH receptor; class by percent of control at 10^-7 M or IC50.
`CCC(Oc1ccccc1)C(=O)N[C@H]1CC[C@@H](Nc2cc(N(C)C)c3ccccc3n2)CC1` (relative stereo) [compound 48, N-(cis-4-{[4-(dimethylamino)quinolin-2-yl]amino}cyclohexyl)-2-phenoxybutanamide] was tested, and the class was 1 (Class 1: The value of percent of control at 10^−7 M was less than 40% or the value of IC50 was less than 50 nM.).
`CC(Oc1ccccc1)C(=O)N[C@H]1CC[C@@H](Nc2cc(N(C)C)c3ccccc3n2)CC1` (relative stereo) [compound 49, N-(cis-4-{[4-(dimethylamino)quinolin-2-yl]amino}cyclohexyl)-2-phenoxypropanamide] was tested, and the class was 1 (Class 1: The value of percent of control at 10^−7 M was less than 40% or the value of IC50 was less than 50 nM.).
For `CCC(C(=O)N[C@H]1CC[C@@H](Nc2cc(N(C)C)c3ccccc3n2)CC1)c1ccccc1` (relative stereo) [compound 66], the class was 3 (Class 3 The value of percent of control at 10^−7 M was more than 60% or the value of IC50 was more than 200 nM.).
In the case of `CC(=O)OC(C(=O)N[C@H]1CC[C@@H](Nc2cc(N(C)C)c3ccccc3n2)CC1)c1ccccc1` (relative stereo) [compound 92], the class is reported as 3 (Class 3 The value of percent of control at 10^−7 M was more than 60% or the value of IC50 was more than 200 nM.).
With `CCC(Oc1ccccc1)C(=O)NC[C@H]1CC[C@@H](Nc2cc(N(C)C)c3ccccc3n2)CC1` (relative stereo) [compound 175, N-[(cis-4-{[4-(dimethylamino)quinolin-2-yl]amino}cyclohexyl)methyl]-2-phenoxybutanamide] the class was 3 (Class 3 The value of percent of control at 10^−7 M was more than 60% or the value of IC50 was more than 200 nM.).
In the case of `CC(Oc1ccccc1)C(=O)NC[C@H]1CC[C@@H](Nc2cc(N(C)C)c3ccccc3n2)CC1` (relative stereo) [compound 176, N-[(cis-4-{[4-(dimethylamino)quinolin-2-yl]amino}cyclohexyl)methyl]-2-phenoxypropanamide], the class is reported as 3 (Class 3 The value of percent of control at 10^−7 M was more than 60% or the value of IC50 was more than 200 nM.).
In the case of `CCC(C(=O)NC[C@H]1CC[C@@H](Nc2cc(N(C)C)c3ccccc3n2)CC1)c1ccccc1` (relative stereo) [compound 193], the class is reported as 3 (Class 3 The value of percent of control at 10^−7 M was more than 60% or the value of IC50 was more than 200 nM.).

Same assay, conditions: class 1-3 by percent of control at 10^-7 M or IC50
`CCC(Oc1ccccc1)C(=O)N[C@H]1CC[C@@H](Nc2nc3c(c(N(C)C)n2)CCCC3)CC1` (relative stereo) [compound 484] was tested, and the class was 1 (Class 1: The value of percent of control at 10^−7 M was less than 40% or the value of IC50 was less than 50 nM.).
For `CC(Oc1ccccc1)C(=O)N[C@H]1CC[C@@H](Nc2nc3c(c(N(C)C)n2)CCCC3)CC1` (relative stereo) [compound 485], the class was 1 (Class 1: The value of percent of control at 10^−7 M was less than 40% or the value of IC50 was less than 50 nM.).
In the case of `CCC(C(=O)N[C@H]1CC[C@@H](Nc2nc3c(c(N(C)C)n2)CCCC3)CC1)c1ccccc1` (relative stereo) [compound 502], the class is reported as 3 (Class 3 The value of percent of control at 10^−7 M was more than 60% or the value of IC50 was more than 200 nM.).
`CC(=O)OC(C(=O)N[C@H]1CC[C@@H](Nc2nc3c(c(N(C)C)n2)CCCC3)CC1)c1ccccc1` (relative stereo) [compound 528] was tested, and the class was 1 (Class 1: The value of percent of control at 10^−7 M was less than 40% or the value of IC50 was less than 50 nM.).

Same assay, conditions: class by percent of control at 10^-7 M or IC50
In the case of “4-({[(cis-4-{[4-(dimethylamino)pyrimidin-2-yl]amino}-cyclohexyl)methyl]amino}methyl)-2,6-dimethoxyphenol [compound 1254]”, the class is reported as 1 (Class 1: The value of percent of control at 10^−7 M was less than 40% or the value of IC50 was less than 50 nM.).
In the case of `CCC(Oc1ccccc1)C(=O)N[C@H]1CC[C@@H](Nc2nccc(N(C)C)n2)CC1` (relative stereo) [compound 266, N-(cis-4-{[4-(dimethylamino)pyrimidin-2-yl]amino}cyclohexyl)-2-phenoxybutanamide], the class is reported as 2 (Class 2: The value of percent of control at 10^−7 M was from 40% to 60% or the value of IC′50 was from 50 nM to 200 nM.).
For `CC(Oc1ccccc1)C(=O)N[C@H]1CC[C@@H](Nc2nccc(N(C)C)n2)CC1` (relative stereo) [compound 267], the class was 3 (Class 3 The value of percent of control at 10^−7 M was more than 60% or the value of IC50 was more than 200 nM.).
In the case of `CCC(C(=O)N[C@H]1CC[C@@H](Nc2nccc(N(C)C)n2)CC1)c1ccccc1` (relative stereo) [compound 284], the class is reported as 3 (Class 3 The value of percent of control at 10^−7 M was more than 60% or the value of IC50 was more than 200 nM.).
For `CC(=O)OC(C(=O)N[C@H]1CC[C@@H](Nc2nccc(N(C)C)n2)CC1)c1ccccc1` (relative stereo) [compound 310], the class was 3 (Class 3 The value of percent of control at 10^−7 M was more than 60% or the value of IC50 was more than 200 nM.).
With `CCC(Oc1ccccc1)C(=O)NC[C@H]1CC[C@@H](Nc2nccc(N(C)C)n2)CC1` (relative stereo) [compound 393, N-[(cis-4-{[4-(dimethylamino)pyrimidin-2-yl]amino}cyclohexyl)methyl]-2-phenoxybutanamide] the class was 2 (Class 2: The value of percent of control at 10^−7 M was from 40% to 60% or the value of IC′50 was from 50 nM to 200 nM.).
In the case of `CC(Oc1ccccc1)C(=O)NC[C@H]1CC[C@@H](Nc2nccc(N(C)C)n2)CC1` (relative stereo) [compound 394], the class is reported as 3 (Class 3 The value of percent of control at 10^−7 M was more than 60% or the value of IC50 was more than 200 nM.).
For `CCC(C(=O)NC[C@H]1CC[C@@H](Nc2nccc(N(C)C)n2)CC1)c1ccccc1` (relative stereo) [compound 411, N-[(cis-4-{[4-(dimethylamino)pyrimidin-2-yl]amino}cyclohexyl)methyl]-2-phenylbutanamide], the class was 1 (Class 1: The value of percent of control at 10^−7 M was less than 40% or the value of IC50 was less than 50 nM.).
`CCC(Oc1ccccc1)C(=O)NC[C@H]1CC[C@@H](Nc2nc3c(c(N(C)C)n2)CCCC3)CC1` (relative stereo) [compound 610] was tested, and the class was 3 (Class 3 The value of percent of control at 10^−7 M was more than 60% or the value of IC50 was more than 200 nM.).
For `CC(Oc1ccccc1)C(=O)NC[C@H]1CC[C@@H](Nc2nc3c(c(N(C)C)n2)CCCC3)CC1` (relative stereo) [compound 611], the class was 3 (Class 3 The value of percent of control at 10^−7 M was more than 60% or the value of IC50 was more than 200 nM.).
For `CCC(C(=O)NC[C@H]1CC[C@@H](Nc2nc3c(c(N(C)C)n2)CCCC3)CC1)c1ccccc1` (relative stereo) [compound 628], the class was 3 (Class 3 The value of percent of control at 10^−7 M was more than 60% or the value of IC50 was more than 200 nM.).
`CN(C)c1cc(N[C@H]2CC[C@@H](NC(=O)C(Cc3ccccc3)c3ccccc3)CC2)nc2ccccc12` (relative stereo) [compound 678] was tested, and the class was 3 (Class 3 The value of percent of control at 10^−7 M was more than 60% or the value of IC50 was more than 200 nM.).
`CN(C)c1cc(N[C@H]2CC[C@@H](NC(=O)C3CC(=O)c4ccccc43)CC2)nc2ccccc12` (relative stereo) [compound 684] was tested, and the class was 3 (Class 3 The value of percent of control at 10^−7 M was more than 60% or the value of IC50 was more than 200 nM.).
For `CN(C)c1cc(N[C@H]2CC[C@@H](NC(=O)[C@H](CCCCNC(=O)c3ccccc3)NC(=O)c3ccccc3)CC2)nc2ccccc12` (relative stereo) [compound 704], the class was 3 (Class 3 The value of percent of control at 10^−7 M was more than 60% or the value of IC50 was more than 200 nM.).
For `CC(C(=O)N[C@H]1CC[C@@H](Nc2cc(N(C)C)c3ccccc3n2)CC1)c1ccc(-c2ccccc2)c(F)c1` (relative stereo) [compound 708], the class was 3 (Class 3 The value of percent of control at 10^−7 M was more than 60% or the value of IC50 was more than 200 nM.).
For `CC(C(=O)N[C@H]1CC[C@@H](Nc2cc(N(C)C)c3ccccc3n2)CC1)c1ccc(N2Cc3ccccc3C2=O)cc1` (relative stereo) [compound 710], the class was 3 (Class 3 The value of percent of control at 10^−7 M was more than 60% or the value of IC50 was more than 200 nM.).
In the case of `COc1ccc2c(c1)C(CC(=O)N[C@H]1CC[C@@H](Nc3cc(N(C)C)c4ccccc4n3)CC1)CC2=O` (relative stereo) [compound 713], the class is reported as 3 (Class 3 The value of percent of control at 10^−7 M was more than 60% or the value of IC50 was more than 200 nM.).
In the case of `CN(C)c1cc(N[C@H]2CC[C@@H](NC(=O)C(CC(=O)c3ccccc3)c3c[nH]c4ccccc34)CC2)nc2ccccc12` (relative stereo) [compound 716, N-(cis-4-{[4-(dimethylamino)quinolin-2-yl]amino}cyclohexyl)-2-(1H-indol-3-yl)-4-oxo-4-phenylbutanamide], the class is reported as 2 (Class 2: The value of percent of control at 10^−7 M was from 40% to 60% or the value of IC′50 was from 50 nM to 200 nM.).
In the case of `CN(C)c1cc(N[C@H]2CC[C@@H](NC(=O)C(CC(=O)c3ccc(Br)cc3)c3c[nH]c4ccccc34)CC2)nc2ccccc12` (relative stereo) [compound 717], the class is reported as 3 (Class 3 The value of percent of control at 10^−7 M was more than 60% or the value of IC50 was more than 200 nM.).
`CCc1cccc2c(C(CC(=O)c3ccc(C(C)(C)C)cc3)C(=O)N[C@H]3CC[C@@H](Nc4cc(N(C)C)c5ccccc5n4)CC3)c[nH]c12` (relative stereo) [compound 720] was tested, and the class was 3 (Class 3 The value of percent of control at 10^−7 M was more than 60% or the value of IC50 was more than 200 nM.).
With `CN(C)c1cc(N[C@H]2CC[C@@H](NC(=O)C(CC(=O)c3ccc(C(C)(C)C)cc3)c3cn(C)c4ccccc34)CC2)nc2ccccc12` (relative stereo) [compound 721] the class was 3 (Class 3 The value of percent of control at 10^−7 M was more than 60% or the value of IC50 was more than 200 nM.).
For `Cc1ccc(C(=O)CC(C(=O)N[C@H]2CC[C@@H](Nc3cc(N(C)C)c4ccccc4n3)CC2)c2cn(C)c3ccccc23)cc1` (relative stereo) [compound 722], the class was 3 (Class 3 The value of percent of control at 10^−7 M was more than 60% or the value of IC50 was more than 200 nM.).
